In the test the target is human HPK1 (MAP4K1) (Homo sapiens (Human), UniProt Q92918). Briefly: HPK1 IC50 Assay (TR-FRET peptide phosphorylation). The test is classed as biochemical. Conditions: recombinant HPK1 kinase domain 0.15 nM, 10 μM ATP, 1 μM STK S1 peptide; geometric mean of multiple experiments. As for the experimental part:
The enzymatic activity of human HPK1 (MAP4K1) was monitored in a biochemical assay in the presence or absence of compounds and using a synthetic peptide substrate. An increase in phosphorylation of the peptide by HPK1 was indicative of its kinase activity.
Recombinant HPK1 kinase domain produced via baculovirus infection of insect cells was obtained from Proteros (Proteros Biostructures #PR-0322) and was pre-activated in the presence of 2 mM ATP (Sigma-Aldrich, cat #GE27-2056-01) and 2 mM magnesium chloride for 16 hours at 4° C. The protein reaction mixture was then loaded to a desalting column (Thermo Fisher Scientific, Cat #89889) to remove excess ATP. HPK1 was eluted with buffer containing 20 mM Tris (2-Amino-2-(hydroxymethyl)propane-1,3-diol) pH 8.0, 150 mM NaCl, 2 mM dithiothreitol and 5% glycerol, and was frozen at −80° C. for later use. HPK1 dual phosphorylation was confirmed by mass spectrometry.
Ten nanoliters of test compounds dissolved in DMSO at various concentrations were dispensed into a 384-well ProxiPlate (PerkinElmer #6008289). Five microliters of a solution of recombinant HPK1 diluted in HPK1 kinase assay buffer (50 mM BES [N,N-Bis(2-hydroxyethyl)-2-aminoethanesulfonic acid], pH 7.0; 10 mM magnesium chloride; 0.01% Triton X-100; 1 mM dithiothreitol; 0.01% bovine serum albumin; 0.1 mM sodium orthovanadate) was added to the compound-containing plate and was incubated for 15 minutes at 25° C. Five microliters of a mixture of ATP (Sigma-Aldrich #A6559) and peptide substrate STK S1 (Cisbio #61ST1BLC) diluted in HPK1 kinase assay buffer was then added to start the reaction. Final concentrations were 0.15 nM for HPK1, 10 μM for ATP, and 1 μM for the STK S1 peptide substrate. The reaction mixture was incubated at 25° C. for 3 hours and was stopped with the addition of 10 μl of an EDTA (Ethylenediaminetetraacetic acid)-containing detection buffer (Cisbio #62SDBRDF) supplemented with Europium cryptate-labeled anti-phospho-serine/threonine antibodies (Cisbio #62ST1PEJ) and XL665-labeled streptavidin (Cisbio #610SAXLG). The mixture was incubated for 16 hours at room temperature and peptide phosphorylation was measured by time-resolved fluorescence energy transfer (665 nm/620 nm) on an Envision plate reader (PerkinElmer).
Data in Table 1 were normalized based on positive (staurosporine) and negative (DMSO) controls. Least squares curve fittings were performed using a four-parameter variable slope nonlinear regression model. IC50 is defined as the concentration of compound required to inhibit 50% of maximum phosphorylation. IC50 values from multiple experiments were averaged by geometric mean and the standard deviation was calculated.
Chain of human HPK1 (MAP4K1) (Q92918 17-274): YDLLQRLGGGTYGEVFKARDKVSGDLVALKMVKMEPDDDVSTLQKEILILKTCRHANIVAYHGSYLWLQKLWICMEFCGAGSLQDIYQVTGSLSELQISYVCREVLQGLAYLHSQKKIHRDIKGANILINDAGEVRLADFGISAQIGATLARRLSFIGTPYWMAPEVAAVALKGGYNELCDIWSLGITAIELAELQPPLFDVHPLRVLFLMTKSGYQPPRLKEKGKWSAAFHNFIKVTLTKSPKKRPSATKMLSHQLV
Take `Cc1ccc(Nc2nc(-c3ccc4c(c3)N([C@H]3C[C@@H](N5CCCCC5)C3)C(=O)C4(C)C)cc3ncn(C(C)C)c23)cc1C(=O)NC1CC1` [Example 26]: the IC50 (usually the concentration at which inhibition is half-maximal) is 0.1 nM.

On to `Cc1ccc(Nc2nc(-c3ccc4c(c3)N([C@H]3C[C@@H](N5CCCCC5)C3)C(=O)C4(C)C)cc3ncn(C(C)C)c23)cc1C(=O)NC1(C(F)F)CC1` [Example 27], for which the IC50 worked out at 0.07 nM.

Consider `Cc1ccc(Nc2nc(-c3ccc4c(c3)N([C@H]3C[C@@H](N5CCCCC5)C3)C(=O)C4(C)C)cc3ncn(C(C)C)c23)cc1C(=O)NCC(C)(F)F` [Example 28], for which the IC50 is 0.1 nM.

For `Cc1ccc(Nc2nc(-c3ccc4c(c3)N([C@H]3C[C@@H](N5CCCCC5)C3)C(=O)C4(C)C)cc3ncn(C(C)C)c23)cc1C(=O)N[C@@H](C)CF` [Example 29], the IC50 stood at 0.1 nM.

For the compound `Cc1ccc(Nc2nc(-c3ccc4c(c3)N([C@H]3C[C@@H](N5CCCCC5)C3)C(=O)C4(C)C)cc3ncn(C(C)C)c23)cc1C(=O)N[C@H](C)CF` [Example 30], the IC50 turned out to be 0.1 nM.

For the compound `Cc1ccc(Nc2nc(-c3ccc4c(c3)N([C@H]3C[C@@H](N5CCCCC5)C3)C(=O)C4(C)C)cc3ncn(C(C)C)c23)cc1C(=O)NC(CF)CF` [Example 31], the IC50 was found to be 0.08 nM.

With `Cc1ccc(Nc2nc(-c3ccc4c(c3)N([C@H]3C[C@@H](N5CCCCC5)C3)C(=O)C43CCOCC3)cc3ncn(C(C)C)c23)cc1C(=O)NC1(C(F)F)CC1` [Example 32], the IC50 amounted to 0.08 nM.

Regarding `CNC(=O)c1cc(Oc2nc(-c3ccc4c(c3)N([C@H]3C[C@@H](N5CCCCC5)C3)C(=O)C4(C)C)cc3ncn(C4CC4)c23)ccc1C` [Example 34], the IC50 was determined as 0.6 nM.

`CNC(=O)c1cc(Nc2nc(-c3ccc4c(c3)N([C@H]3C[C@@H](N5CCCCC5)C3)C(=O)C43CCOCC3)cc3ncn(C(C)C)c23)c(F)cc1C` [Example 35]: the IC50 was determined as 0.1 nM.

For `Cc1ccc(Nc2nc(-c3ccc4c(c3)N([C@H]3C[C@@H](N5CCC[C@H](O)C5)C3)C(=O)C4(C)C)cc3ncn(C4CC4)c23)cc1C(N)=O` [Example 36], the IC50 was 0.1 nM.

As to `Cc1ccc(Nc2nc(-c3ccc4c(c3)N([C@H]3C[C@@H](N5CCC[C@@H](O)C5)C3)C(=O)C4(C)C)cc3ncn(C4CC4)c23)cc1C(N)=O` [Example 37], the IC50 came to 0.1 nM.

Regarding `CNC(=O)c1cc(Nc2nc(-c3ccc4c(c3)N([C@H]3C[C@@H](N5CCCC(C)(C)C5)C3)C(=O)C4(C)C)cc3ncn(C4CC4)c23)ccc1C` [Example 38], the IC50 was 0.07 nM.

On to `CNC(=O)c1cc(Nc2nc(-c3ccc4c(c3)N([C@H]3C[C@@H](N5CCOCC5)C3)C(=O)C4(C)C)cc3ncn(C(C)C)c23)ccc1C` [Example 39], for which the IC50 was determined as 0.1 nM.

As for `CNC(=O)c1cc(Nc2nc(-c3ccc4c(c3)N([C@H]3C[C@@H](N5CCCCC5)C3)C(=O)C4(C)C)cc3ncn(C4CC4)c23)ccc1Cl` [Example 40], the IC50 was determined as 0.1 nM.

In the case of `CNC(=O)c1cc(Nc2nc(-c3ccc4c(c3)N([C@H]3C[C@@H](N5CCCCC5)C3)C(=O)C43CCN(C(=O)C45CC(C4)C5)CC3)cc3ncn(C4CC4)c23)ccc1Cl` [Example 41], the IC50 is 0.07 nM.

Regarding `CNC(=O)c1cc(Nc2nc(-c3ccc4c(c3)N([C@H]3C[C@@H](N5C[C@H]6CC[C@@H]5C6)C3)C(=O)C43CCN(C(=O)C4COC4)CC3)cc3ncn(C4CC4)c23)ccc1C` [Example 42], the IC50 was 0.06 nM.

Turning to `CNC(=O)c1cc(Nc2nc(-c3ccc4c(c3)N([C@H]3C[C@@H](N5C[C@H]6CC[C@@H]5C6)C3)C(=O)C43CCN(C(=O)C45CC(C4)C5)CC3)cc3ncn(C4CC4)c23)ccc1C` [Example 43], the 50% inhibitory concentration (IC50) is 0.08 nM.

`CNC(=O)c1cc(Nc2nc(-c3ccc4c(c3)N([C@H]3C[C@@H](N5C[C@H]6CC[C@@H]5C6)C3)C(=O)C43CCN(C(C)=O)CC3)cc3ncn(C4CC4)c23)ccc1C` [Example 44]: the IC50 was found to be 0.2 nM.

As to `CCC1(CC)C(=O)N([C@H]2C[C@@H](N3CCCCC3)C2)c2cc(-c3cc4ncn(C(C)C)c4c(Nc4ccc(C)c(C(=O)NC)c4)n3)ccc21` [Example 45], the IC50 was 0.1 nM.

Consider `CNC(=O)c1cc(Nc2nc(-c3ccc4c(c3)N([C@H]3C[C@@H](N5CCCCC5)C3)C(=O)C43CCN(C(C)=O)CC3)cc3ncn(C(C)C)c23)ccc1C` [Example 46], for which the IC50 came out at 0.1 nM.

Regarding `CNC(=O)c1cc(Nc2nc(-c3ccc4c(c3)N([C@H]3C[C@@H](N5CCCCC5)C3)C(=O)C43CCN(C(C)=O)CC3)cc3ncn(C4CC4)c23)ccc1Cl` [Example 47], the IC50 is 0.2 nM.

Take `CC[C@H](C)n1cnc2cc(-c3ccc4c(c3)N([C@H]3C[C@@H](N5CCCCC5)C3)C(=O)C43CCN(C(C)=O)CC3)nc(Nc3ccc(C)c(C(=O)NC)c3)c21` [Example 48]: the IC50 was found to be 0.1 nM.

With `CCn1cnc2cc(-c3ccc4c(c3)N([C@H]3C[C@@H](N5CCCCC5)C3)C(=O)C43CCN(C(C)=O)CC3)nc(Nc3ccc(C)c(C(=O)NC)c3)c21` [Example 49], the IC50 is 0.1 nM.

Take `CNC(=O)c1cc(Nc2nc(-c3ccc4c(c3)N([C@H]3C[C@@H](N5CCCCC5)C3)C(=O)C43CCN(C(=O)OC)CC3)cc3ncn(C4CC4)c23)ccc1C` [Example 50]: the IC50 came out at 0.1 nM.

With `CNC(=O)c1cc(Nc2nc(-c3ccc4c(c3)N([C@H]3C[C@@H](N5CCCCC5)C3)C(=O)C43CCN(C(=O)C4CC4)CC3)cc3ncn(C4CC4)c23)ccc1C` [Example 51], the IC50 is 0.1 nM.

As for `CNC(=O)c1cc(Nc2nc(-c3ccc4c(c3)N([C@H]3C[C@@H](N5CCCCC5)C3)C(=O)C43CCN(C(=O)C(C)C)CC3)cc3ncn(C4CC4)c23)ccc1C` [Example 52], the IC50 stood at 0.09 nM.

On to `CCC(=O)N1CCC2(CC1)C(=O)N([C@H]1C[C@@H](N3CCCCC3)C1)c1cc(-c3cc4ncn(C(C)C)c4c(Nc4cc(C(=O)NC(C)C)c(C)cc4F)n3)ccc12` [Example 53], for which the IC50 worked out at 0.08 nM.

As to `CCn1cnc2cc(-c3ccc4c(c3)N([C@H]3C[C@@H](N5CCCCC5)C3)C(=O)C43CCN(C(C)=O)CC3)nc(Nc3cc(C(=O)NC(C)C)c(C)cc3F)c21` [Example 54], the IC50 turned out to be 0.4 nM.

Take `Cc1cc(F)c(Nc2nc(-c3ccc4c(c3)N([C@H]3C[C@@H](N5CCCCC5)C3)C(=O)C43CCN(C(=O)C(C)(C)O)CC3)cc3ncn(C(C)C)c23)cc1C(=O)NC(C)C` [Example 55]: the IC50 is 0.2 nM.

In the case of `CCNC(=O)c1cc(Nc2nc(-c3ccc4c(c3)N([C@H]3C[C@@H](N5CCCCC5)C3)C(=O)C43CCN(C(=O)CC)CC3)cc3ncn(CC)c23)c(F)cc1C` [Example 56], the IC50 came to 0.3 nM.

For `CNC(=O)c1cc(Nc2nc(-c3ccc4c(c3)N([C@H]3C[C@@H](N5CCCCC5)C3)CC4(C)C)cc3ncn(C(C)C)c23)ccc1C` [Example 57], the IC50 stood at 0.2 nM.

On to `CNC(=O)c1cc(Nc2nc(-c3ccc4c(c3)N([C@H]3C[C@@H](N5CCCCC5)C3)CC4(C)C)cc3ncn(C4CC4)c23)ccc1C` [Example 58], for which the IC50 amounted to 0.6 nM.

With `CNC(=O)c1cc(Nc2nc(-c3ccc4c(c3)N([C@H]3C[C@@H](N5CCCCC5)C3)C(=O)C43CCN(C(C)=O)CC3)cc3ncn(C4CC4)c23)ccc1C` [Example 58a], the IC50 amounted to 0.1 nM.

`CC(=O)N1CCC2(CC1)C(=O)N([C@H]1C[C@@H](N3CCCCC3)C1)c1cc(-c3cc4ncn(C(C)C)c4c(Nc4cc(C(=O)NC(C)(C)C)c(C)cc4F)n3)ccc12` [Example 59]: the IC50 stood at 0.3 nM.

`CCNC(=O)c1cc(Nc2nc(-c3ccc4c(c3)N([C@H]3C[C@@H](N5CCCCC5)C3)C(=O)C43CCN(C(=O)CC)CC3)cc3ncn(C(C)C)c23)c(F)cc1C` [Example 60]: the IC50 was 0.2 nM.

As to `CNC(=O)c1cc(Nc2nc(-c3ccc4c(c3)N([C@H]3C[C@@H](N5CCCCC5)C3)C(=O)C43CCN(CC(F)F)CC3)cc3ncn(C(C)C)c23)c(F)cc1C` [Example 61], the IC50 amounted to 0.2 nM.

Turning to `Cc1ccc(Nc2nc(-c3ccc4c(c3)N([C@H]3C[C@@H](N5CCCCC5)C3)C(=O)C43CCN(CC(F)F)CC3)cc3ncn(C(C)C)c23)cc1C(=O)NC(C)C` [Example 62], the IC50 came out at 0.1 nM.

In the case of `CNC(=O)c1cc(Nc2nc(-c3ccc4c(c3)N([C@H]3C[C@@H](N5CCCCC5)C3)C(=O)C4(C)O)cc3ncn(C(C)C)c23)ccc1Cl` (stereo partly drawn) [Example 63], the IC50 worked out at 0.1 nM.

`Cc1c(C(=O)NC2(C(F)F)CC2)cc(Nc2nc(-c3cnc4c(c3)N([C@H]3C[C@@H](N5C[C@H]6CC[C@@H]5C6)C3)C(=O)C4(C)C)cc3ncn(C(C)C)c23)c(F)c1F` [Example 64]: the IC50 was 0.1 nM.

The values above are taken from patent US11203591B2, “Substituted 6-azabenzimidazole compounds” (Gilead Sciences, Inc., priority 2018, dated 2021).
